Assay [1] concerns the target T1, Na^+,K^+ -ATPase (Canis lupus familiaris, UniProt P50997).
T1 construct: from tissue; the cited Jorgensen 1974 method uses outer medulla of mammalian kidney (own knowledge)
In words: displacement of the specific ^3H-ouabain binding from the purified Na^+,K^+-ATPase receptor. The text has this:
(§1) To test the affinity for the receptor site of the Na^+,K^+ -ATPase and the agonist or antagonist activity on the enzyme, the following tests were used:
a) displacement of the specific ^3 H-ouabain binding from the Na^+,K^+ -ATPase receptor purified according to Jorghensen (Jorghensen P., BBA, 1974, 356, 36) and Erdmann (Erdmann E. et al., Arzneim. Forsh, 1984, 34, 1314);

Assay [2] addresses T1, Na^+,K^+ -ATPase. Briefly: biochemical.
Text: as §1
b) inhibition of the activity of the purified Na^+,K^+ -ATPase measured as % of hydrolysis of ^32 P-ATP in presence and in absence of the tested compound (Doucet A. et al., Am. J. Physiol., 1986, 251, F851).

The subject of assay [3] is spontaneous hypertensive rats (MHS). Briefly: effect of 5 week-treatment in spontaneous hypertensive rats (MHS) on the development of hypertension (tail cuff SBP and HR). It is filed as in vivo, rat. Conditions: 1 mg/Kg/os daily in Methocel 0.5% w/v, 5 weeks; for SBP (systolic blood pressure): controls (Methocel) 172 +/- 3.5; for HR (heart rate): controls (Methocel) 380 +/- 9.0. Here is the method: To test the antihypertensive activity the following test was used:
systolic blood pressure (SBP) and heart rate (HR) were measured, by the tail cuff method, in young prehypertensive male rats (MHS or SHR) strains before the development of hypertension (4 weeks of age) for recording the basal values of SBP. Groups of 7 rats were formed and subdivided in control and treated groups. The compound, suspended in Methocel 0.5% (w/v), was orally given daily for at least 5 weeks to the treated groups. The control group received only Methocel. SBP and HR were measured weekly 6 and 24 hrs after treatment. After 5 weeks of treatment, when hypertension was fully developed in the control group (9 weeks of age), washout was started for at least one week, to verify whether the treatment mantained blood pressure low or reestablished the basal values.
(Takeda K. et al., Japan J. Pharmacol., 1979, 29,171; Takeda K. et al. Japan J. Pharmacol., 1982, 32, 283; Richer C. et al. Eur. J. Pharmacol, 1978, 47,393).

[4] abbreviates: ^3H-ouabain displacement, purified Na^+,K^+-ATPase, read-out: Binding ^3 H-Ouab. Displacement log IC50 (converted).
The mark [5] stands for this setting: purified Na^+,K^+-ATPase, ^32P-ATP hydrolysis, read-out: Inhibitory Activity log IC50 (converted).

SMILES strings stand for the structures. Where a name gives a salt, the structure may show the parent alone.

`CC[C@@H](C/C=C/C=N/OCCN(C)C)[C@@]1(C)CC[C@H]2[C@@H](CC[C@@H]3C[C@@H](O)CC[C@@]32C)C1=O` [Comp. I-be, E,E-17α-4-[(2-Dimethylaminoethoxyimino)-2-butenyl]-5β-14,15-seco-3β-hydroxy-androstan-14-one oxalate]: in assay [1] (setting [4]), the IC50 (in general, the concentration at which inhibition is half-maximal) was 0.316 µM. In addition, the IC50 in assay [2] (setting [5]) is 6.31 µM. Also, in assay [3], the “SBP (systolic blood pressure)” value was 150 +/- 5.1 mm Hg and the “HR (heart rate)” value is recorded as 384 +/- 7.9 beats/min.

Regarding `CC[C@@H](C/C=N/OCCN(C)C)[C@@]1(C)CC[C@H]2[C@@H](CC[C@H]3C[C@@H](O)CC[C@@]32C)C1=O` [Comp. I-bi, E-17α-2-[(2-Dimethylaminoethoxy)iminomethyl]-14,15-seco-3β-hydroxy-androstan-14-one oxalate], the IC50 is 2 µM in assay [1] and 10 µM in assay [2].

Consider `CC[C@@H](C/C=N/NC(=N)N)[C@@]1(C)CC[C@H]2[C@@H](CC[C@@H]3C[C@@H](O)CC[C@@]32C)C1=O` [Comp. I-ay, E-17α-2-(2-Guanidinoiminoethyl)-5β-14,15-seco-3β-hydroxy-androstan-14-one oxalate], for which the IC50 in assay [1] (setting [4]) was 0.398 µM; in assay [2] (setting [5]), 3.16 µM.

With `CC[C@@H](C/C=N/OCCN)[C@@]1(C)CC[C@H]2[C@@H](CC[C@H]3C[C@@H](O)CC[C@@]32C)C1=O` [Comp. I-bg, E-17α-2-[(2-Aminoethoxy)iminomethyl]-14,15-seco-3β-hydroxy-androstan-14-one oxalate], the IC50 in assay [1] is 0.158 µM; in assay [2], 1 µM. Besides, the “SBP (systolic blood pressure)” value in assay [3] is recorded as 151 +/- 5.2 mm Hg. The “HR (heart rate)” value in assay [3] is given as 388 +/- 9.0 beats/min.

As to `CC[C@@H](C/C=N/OCCN)[C@@]1(C)CC[C@H]2[C@@H](CC[C@@H]3C[C@@H](O)CC[C@@]32C)C1=O` [Comp. I-ao, E-17α-2-[(2-Aminoethoxy)iminomethyl]-5β-14,15-seco-3β-hydroxy-androstan-14-one oxalate], the IC50 was 0.0398 µM in assay [1] and 0.2 µM in assay [2].

As to `CC[C@@H](/C=N/OCCN(C)C)[C@@]1(C)CC[C@H]2[C@@H](CC[C@@H]3C[C@@H](O)CC[C@@]32C)C1=O` [Comp. I-ak, E-17β-2-[(2-Dimethylaminoethoxy)iminomethyl]-5β-14,15-seco-3β-hydroxy-androstan-14-one oxalate], the IC50 in assay [1] (setting [4]) is 0.501 µM. Besides, the IC50 in assay [2] (setting [5]) was 7.94 µM. Besides, in assay [3], the “SBP (systolic blood pressure)” value was 153 +/- 6.3 mm Hg and the “HR (heart rate)” value was 380 +/- 10.0 beats/min.

For the molecule `C[C@@H](C/C=N/OCCN(C)C)[C@@]1(C)CC[C@H]2[C@@H](CC[C@@H]3C[C@@H](O)CC[C@@]32C)C1=O` [Comp. I-ag, E-17β-Methyl-15-[(2-dimethylaminoethoxy)imino]-5β-14,15-seco-3β-hydroxy-androstan-14-one oxalate], in assay [3], the “SBP (systolic blood pressure)” value is listed as 154 +/- 4.8 mm Hg and the “HR (heart rate)” value is 390 +/- 5.9 beats/min.

Turning to `CC[C@H](C/C=N/OCCN(C)C)[C@@]1(C)CC[C@H]2[C@@H](CC[C@@H]3C[C@@H](O)CC[C@@]32C)C1=O` [Comp. I-aq, E-17β-2-[(2-Dimethylaminoethoxy)iminomethyl]-5β-14,15-seco-3β-hydroxy-androstan-14-one oxalate], the IC50 was 0.794 µM in assay [1] and 12.6 µM in assay [2].

`C[C@@H](C/C=N/OCCN)[C@@]1(C)CC[C@H]2[C@@H](CC[C@@H]3C[C@@H](O)CC[C@@]32C)C1=O` [Comp. I-ae, E-17β-Methyl-15-[(2-aminoethoxy)imino]-5β-14,15-seco-3β-hydroxy-androstan-14-one oxalate]: in assay [3], the “SBP (systolic blood pressure)” value is 149 +/- 3.7 mm Hg and the “HR (heart rate)” value is 370 +/- 11.2 beats/min.

Take `CC[C@H](/C=N/OCCN(C)C)[C@@]1(C)CC[C@H]2[C@@H](CC[C@@H]3C[C@@H](O)CC[C@@]32C)C1=O` [Comp. I-ai, E-17β-2-[(2-Dimethylaminoethoxy)iminomethyl]-5β-14,15-seco-3β-hydroxy-androstan-14-one oxalate]: the IC50 in assay [1] (setting [4]) is 3.98 µM; in assay [2] (setting [5]), 100 µM.

`CC[C@@H](C/C=N/OCCN(C)C)[C@@]1(C)CC[C@H]2[C@@H](CC[C@@H]3C[C@@H](O)CC[C@@]32C)C1=O` [Comp. I-as, E-17α-2-[(2-Dimethylaminoethoxy)iminomethyl]-5β-14,15-seco-3β-hydroxy-androstan-14-one oxalate]: the IC50 in assay [1] is 0.1 µM; in assay [2], 1.26 µM.

For the origin of these results see patent US5955632A, “Seco-d steroids active on the cardiovascular system, processes for their preparation and pharmaceutical compositions containing them” (Sigma-Tau Industrie Farmaceutiche Riunite S.p.A., priority 1996, dated 1999).
